Data as given in paper PMC10033419, “Blocking NS3–NS4B interaction inhibits dengue virus in non-human primates” (Nature, 2023).
“And” between values parts separate entries of the source, which are not always exact repeats. Identical values can stand only once. Like-named read-outs stand apart in the source and are kept apart here.

Assays:
CHIKV S27 = assay: CPE inhibition assay ATPLite, Huh-7; assay type: cell-based; conditions: Chikungunya virus
[1] = tested on: NS4A-2K-NS4B precursor cleavage; assay: microbe, parasite or virus in culture; assay type: cell-based, DENV-2
INF-A PR8/1934 = assay: microbe, parasite or virus in culture; assay type: cell-based; conditions: Influenza A virus, PR8, MDCK
[2] = tested on: unrelated DNA and RNA viruses; assay: Panel of unrelated DNA and RNA viruses; assay type: cell-based
THP-1/DC-SIGN cells = assay: ATPLite cell viability assay; assay type: cell-based, human
Experimental: (§1) In parallel, the toxicity was measured using an ATPLite cell viability luminescence assay (PerkinElmer). The assays were performed in three different cell types (Vero, Huh-7 and THP-1/DC-SIGN) as described in ref. [3] to exclude cell-specific activity of the compound.

[3] = ATPLite cell viability assay; assay type: cell-based, human; conditions: human, THP-1/DC-SIGN cells
Experimental: as §1

in vitro = conditions: African green monkey

Q: For `COc1cc(N[C@H](C(=O)c2c[nH]c3ccc(OC(F)(F)F)cc23)c2ccc(Cl)cc2OC)cc(S(C)(=O)=O)c1` [JNJ-1802], which EC50 (CHIKV S27; Huh-7) is on record?
A: > 25 µM

Q: What about the EC90 (CHIKV S27; Huh-7, read-out: EC90, Mean) of the same compound?
A: > 25 µM

Q: And the EC50 ([1]; Dengue virus, read-out: EC50 2k-4B Input, Mean, WT)?
A: 0.00172 µM

Q: What about the “2K-NS4B proportion in lysate” value ([1]; L94F, 10 nM) of the same compound?
A: 18.25% and 11.99% and 16.55%

Q: And the “2K-NS4B proportion in lysate” value ([1]; L94F, 500 nM)?
A: 4.03% and 6.25% and 1.49%

Q: What about the “NS4A-2K-NS4B proportion in lysate” value ([1]; L94F, 500 nM) of the same compound?
A: 75.65% and 50.22% and 78.28%

Q: What about the “2K-NS4B proportion in lysate” value ([1]; L94F, 1000 nM) of the same compound?
A: 3.64% and 2.91% and 2.22%

Q: And the “NS4A-2K-NS4B proportion in lysate” value ([1]; L94F, 1000 nM)?
A: 77.84% and 43.16% and 74.46%

Q: What about the EC50 ([1]; L94F, read-out: EC50 2k-4B Input, Mean) of the same compound?
A: 0.108 µM

Q: What about the “2K-NS4B proportion in lysate” value ([1]; T108I, 0.5 nM) of the same compound?
A: 23.11% and 13.79% and 13.87%

Q: What about the “NS4A-2K-NS4B proportion in lysate” value ([1]; T108I, 0.5 nM) of the same compound?
A: 44.71% and 43.02% and 68.40%

Q: And the “NS4A-2K-NS4B proportion in lysate” value ([1]; T108I, 1 nM)?
A: 72.39% and 47.37% and 49.13%

Q: And the “2K-NS4B proportion in lysate” value ([1]; T108I, 5 nM)?
A: 9.35% and 15.53% and 10.95%

Q: And the “NS4A-2K-NS4B proportion in lysate” value ([1]; T108I, 5 nM)?
A: 71.83% and 55.33% and 51.65%

Q: What about the “NS4B proportion in lysate” value ([1]; T108I, 5 nM) of the same compound?
A: 18.83% and 29.14% and 37.41%

Q: And the “2K-NS4B proportion in lysate” value ([1]; T108I, 10 nM)?
A: 5.10% and 8.23% and 10.83%

Q: And the “NS4A-2K-NS4B proportion in lysate” value ([1]; T108I, 10 nM)?
A: 71.88% and 68.85% and 55.44%

Q: And the “NS4B proportion in lysate” value ([1]; T108I, 10 nM)?
A: 23.02% and 22.91% and 33.72%

Q: And the “2K-NS4B proportion in lysate” value ([1]; T108I, 50 nM)?
A: 3.79% and 3.62% and 3.12%

Q: What about the “NS4A-2K-NS4B proportion in lysate” value ([1]; T108I, 50 nM) of the same compound?
A: 72.18% and 59.64% and 51.99%

Q: What about the “NS4B proportion in lysate” value ([1]; T108I, 50 nM) of the same compound?
A: 24.02% and 36.74% and 44.89%

Q: What about the EC50 ([1]; T108I, single replicates, read-out: EC50 (2k-4B), Input) of the same compound?
A: 0.00608 µM and 0.00688 µM and 0.0209 µM

Q: What about the EC50 ([1]; T108I, read-out: EC50 2k-4B Input, Mean) of the same compound?
A: 0.0113 µM

Q: What about the “2K-NS4B proportion in lysate” value ([1]; V91A, 10 nM) of the same compound?
A: 18.41% and 10.69% and 19.20%

Q: And the “2K-NS4B proportion in lysate” value ([1]; V91A, 50 nM)?
A: 12.06% and 15.08% and 7.29%

Q: And the “2K-NS4B proportion in lysate” value ([1]; V91A, 100 nM)?
A: 6.22% and 11.02% and 2.95%

Q: And the “2K-NS4B proportion in lysate” value ([1]; V91A, 500 nM)?
A: 2.16% and 3.56% and 1.47%

Q: What about the “NS4A-2K-NS4B proportion in lysate” value ([1]; V91A, 500 nM) of the same compound?
A: 73.60% and 43.02% and 80.18%

Q: And the “2K-NS4B proportion in lysate” value ([1]; V91A, 1000 nM)?
A: 2.06% and 2.88% and 1.78%

Q: What about the EC50 ([1]; V91A, single replicates, read-out: EC50 (2k-4B), Input) of the same compound?
A: 0.0449 µM and 0.134 µM and 0.0556 µM

Q: And the EC50 ([1]; V91A, read-out: EC50 2k-4B Input, Mean)?
A: 0.078 µM

Q: What about the “2K-NS4B proportion in lysate” value ([1]; WT, 0.5 nM) of the same compound?
A: 20.47% and 12.95% and 13.02%

Q: And the “NS4A-2K-NS4B proportion in lysate” value ([1]; WT, 0.5 nM)?
A: 48.09% and 36.63% and 65.93%

Q: What about the “2K-NS4B proportion in lysate” value ([1]; WT, 1 nM) of the same compound?
A: 5.60% and 9.33% and 12.10%

Q: And the “NS4A-2K-NS4B proportion in lysate” value ([1]; WT, 1 nM)?
A: 66.81% and 44.14% and 43.57%

Q: What about the “NS4B proportion in lysate” value ([1]; WT, 1 nM) of the same compound?
A: 27.59% and 46.53% and 44.33%

Q: And the “2K-NS4B proportion in lysate” value ([1]; WT, 5 nM)?
A: 3.71% and 6.95% and 6.88%

Q: And the “NS4A-2K-NS4B proportion in lysate” value ([1]; WT, 5 nM)?
A: 60.94% and 43.36% and 51.87%

Q: What about the “NS4B proportion in lysate” value ([1]; WT, 5 nM) of the same compound?
A: 35.35% and 49.69% and 41.25%

Q: What about the “2K-NS4B proportion in lysate” value ([1]; WT, 10 nM) of the same compound?
A: 3.62% and 6.23% and 4.49%

Q: And the “NS4A-2K-NS4B proportion in lysate” value ([1]; WT, 10 nM)?
A: 59.94% and 47.30% and 50.84%

Q: What about the “NS4B proportion in lysate” value ([1]; WT, 10 nM) of the same compound?
A: 36.44% and 46.47% and 44.67%

Q: What about the “2K-NS4B proportion in lysate” value ([1]; WT, 50 nM) of the same compound?
A: 5.23% and 6.22% and 5.06%

Q: What about the “NS4A-2K-NS4B proportion in lysate” value ([1]; WT, 50 nM) of the same compound?
A: 53.55% and 57.44% and 58.39%

Q: What about the “NS4B proportion in lysate” value ([1]; WT, 50 nM) of the same compound?
A: 41.22% and 36.34% and 36.55%

Q: What about the EC50 ([1]; read-out: EC50 (2k-4B), Input, WT, single replicates) of the same compound?
A: 0.000491 µM and 0.00062 µM and 0.00406 µM

Q: What about the EC50 (INF-A PR8/1934) of the same compound?
A: > 2.6 µM

Q: And the EC50 (INF-A PR8/1934; read-out: EC50, Mean)?
A: > 25 µM

Q: And the EC90 (INF-A PR8/1934; read-out: EC90, Mean)?
A: > 25 µM

Q: What about the “activity against unrelated DNA and RNA viruses” value [2] of the same compound?
A: inactive

Q: What about the CC50 (THP-1/DC-SIGN cells; individual data, read-out: CC50, individual data) of the same compound?
A: > 0.5 µM

Q: And the CC50 (THP-1/DC-SIGN cells; mean, read-out: CC50 Mean)?
A: > 0.5 µM

Q: And the CC50 [3]?
A: > 0.5 µM

Q: And the CC50 (in vitro)?
A: 16 µM
